The values below come from ChEMBL document CHEMBL4145514, “Unexplored antifungal activity of linear battacin lipopeptides against planktonic and mature biofilms of C. albicans” (Eur J Med Chem, 2018).

Series [1] relates to Candida albicans. The series is described as follows: Induction of eradication of 48 hrs old preformed Candida albicans SC5314 biofilm at 62.5 uM after 24 to 48 hrs by XTT assay. It is filed as functional, organism-based. On the technique in general: Tetrazolium assays rely on reduction of a dye to a coloured formazan, in cell work by metabolically active cells.
Series [2] relates to Candida albicans. The series is described as follows: Synergistic antifungal activity against Candida albicans SC5314 after 48 hrs in presence of 400 nmol AmB. It counts as functional. The note with it: SC5314, 48 h.
In series [3] the test system is Candida albicans. Nature of the series: Synergistic antifungal activity against Candida albicans SC5314 assessed as FIC index after 48 hrs in presence of 800 nmol AmB. It is filed as functional.
Series [4] relates to Candida albicans. The series is described as follows: Ratio of MIC for Candida albicans SC5314 to MIC for Candida albicans SC5314 in presence of 400 nmol AmB. It is filed as functional.
Series [5] concerns Candida albicans. Nature of the series: Induction of ROS generation in Candida albicans SC5314 after 24 to 48 hrs by DCF-DA staining based fluorescence assay. It is filed as functional, organism-based.
Series [6] concerns Candida albicans. Nature of the series: Ratio of MIC for Candida albicans SC5314 to MIC for Candida albicans SC5314 in presence of 800 nmol AmB. It counts as functional.
The subject of series [7] is Candida albicans. The series is described as follows: Induction of morphological changes in Candida albicans SC5314 assessed as necrosis of cytoplasm at 10 times MIC after 45 mins by Uranyl acetate/Lead citrate staining based transmission electron microscopic analysis. It counts as functional, organism-based.
Series [8] relates to Candida albicans. The series is described as follows: Ratio of MBEC50 for 24 hrs old preformed Candida albicans SC5314 biofilm to MIC for Candida albicans SC5314. It counts as functional.
Series [9] has as its system Candida albicans. The series is described as follows: Synergistic antifungal activity against Candida albicans SC5314 after 48 hrs in presence of 800 nmol AmB. The settings on record: SC5314, 48 h. It counts as functional.
Series [10] has as its system Candida albicans. Nature of the series: Antifungal activity against Candida albicans SC5314 after 48 hrs. It counts as functional. The note with it: SC5314, 48 h.
The subject of series [11] is Candida albicans. Nature of the series: Induction of morphological changes in Candida albicans SC5314 assessed as disruption of fungal cell membranes at 10 times MIC after 45 mins by Uranyl acetate/Lead citrate staining based transmission electron microscopic analysis. It counts as functional, organism-based.
Series [12] deals with Candida albicans. Nature of the series: Induction of morphological changes in Candida albicans SC5314 assessed as disruption of fungal cell walls at 10 times MIC after 45 mins by Uranyl acetate/Lead citrate staining based transmission electron microscopic analysis. It counts as functional, organism-based.
Series [13] relates to Candida albicans. Nature of the series: Synergistic antifungal activity against Candida albicans SC5314 assessed as FIC index after 48 hrs in presence of 400 nmol AmB. It counts as functional.
Series [14] concerns Candida albicans. The series is described as follows: Induction of morphological changes in Candida albicans SC5314 assessed as formation of abnormal curvature of cell membranes at MIC after 45 mins by Uranyl acetate/Lead citrate staining based transmission electron microscopic analysis. It is filed as functional, organism-based.
Series [15] is described as follows: Haemolytic activity in mouse RBC at 1 mM incubated for 1 hr relative to control. It is filed as ADME, cell-based, Erythrocyte. The note with it: mouse red blood cells (erythrocytes), read-out: Activity.
Series [16] deals with Candida albicans. Nature of the series: Induction of eradication of 24 hrs old preformed Candida albicans SC5314 biofilm after 24 to 48 hrs by XTT assay. It counts as functional.
For series [17], the system named is Candida albicans. Nature of the series: Induction of ROS generation in Candida albicans SC5314 at 0.2 to 100 uM after 24 to 48 hrs in presence of ascorbic acid by DCF-DA staining based fluorescence assay. It counts as functional, organism-based.
Series [18] relates to Candida albicans. Nature of the series: Antibiofilm activity against Candida albicans SC5314 incubated for overnight by XTT assay. It is filed as functional.
The subject of series [19] is Candida albicans. The series is described as follows: Induction of morphological changes in Candida albicans SC5314 assessed as formation of distorted shape cells at MIC after 45 mins by Uranyl acetate/Lead citrate staining based transmission electron microscopic analysis. It is filed as functional, organism-based.

Values after ≈ are worked out from the molar mass of the structure shown. Active and inactive are the calls of the source.

As usually defined, the MIC is the smallest concentration in the dilution series that meets the test's criterion for growth inhibition. As to `CCC(C)CCC(=O)N[C@H](CCN)C(=O)N[C@@H](CCN)C(=O)N[C@@H](CCN)C(=O)N[C@@H](CC(C)C)C(=O)N[C@H](Cc1ccccc1)C(=O)N[C@@H](CCN)C(=O)N[C@@H](CCN)C(=O)N[C@@H](CC(C)C)C(=O)N[C@H](CCN)C(=O)N[C@@H](CCN)C(=O)N[C@@H](CCN)C(=O)N[C@@H](CC(C)C)C(=O)N[C@H](Cc1ccccc1)C(=O)N[C@@H](CCN)C(=O)N[C@@H](CCN)C(=O)N[C@@H](CC(C)C)C(=O)N[C@H](CCN)C(=O)N[C@@H](CCN)C(=O)N[C@@H](CCN)C(=O)N[C@@H](CC(C)C)C(=O)N[C@H](Cc1ccccc1)C(=O)N[C@@H](CCN)C(=O)N[C@@H](CCN)C(=O)N[C@@H](CC(C)C)C(N)=O` (some centres undefined), the result in the series with Candida albicans [1], with Candida albicans [7], in the series with Candida albicans [11], in the series on Candida albicans [12], in the series with Candida albicans [14] and with Candida albicans [19] was Active. For the same molecule, the MIC came to 1.56 µM in the series with Candida albicans [2], 0.78 µM with Candida albicans [9] and 6.25 µM (≈ 17.2 µg/mL) with Candida albicans [10]. Besides, the entries for the “fractional inhibitory concentration index (FICI)” value in the series on Candida albicans [3] and in the series on Candida albicans [13] were 0.62 and 1.25, respectively. Moreover, the Ratio is reported as 4 in the series with Candida albicans [4], 8 - 32 in the series with Candida albicans [6] and 4 in the series with Candida albicans [8]. The Activity entry in the series with Candida albicans [5] was “Dose-dependent effect”. Also, the hemolysis at 1 h, 1000 µM in series [15] was 21%. This molecule also returned an MBEC50 in the series on Candida albicans [16] of 25 µM. In the series with Candida albicans [17], the result was inactive. The same molecule registered an MBIC50 with Candida albicans [18] of 6.25 µM.
